# Results: article PMC6151695, “Novel Selective Estrogen Receptor Ligand Conjugates Incorporating Endoxifen-Combretastatin and Cyclofenil-Combretastatin Hybrid Scaffolds: Synthesis and Biochemical Evaluation” (Molecules : A Journal of Synthetic Chemistry and Natural …, 2017)
# Marks after values point to notes of the source that are not given here.
# Tests used:
# HCT-2998 = experiment: NCI60 in vitro screen, Colon Cancer; type: cell-based, human
# HL-60(TB) = experiment: NCI60 in vitro screen, Leukemia; type: cell-based, human
# NCI-H23 = experiment: NCI60 in vitro screen, Non-Small Cell Lung Cancer; type: cell-based, human
# 786-0 = experiment: NCI60 in vitro screen, Renal cancer; type: cell-based, human
# LOX IMV1 = experiment: NCI60 in vitro screen, Melanoma; type: cell-based, human
# M14 = experiment: NCI60 in vitro screen, Melanoma; type: cell-based, human
# ACHN = experiment: NCI60 in vitro screen, Renal cancer; type: cell-based, human
# SF295 = experiment: NCI60 in vitro screen, CNS Cancer; type: cell-based, human
# human ERβ = target: T1, human ERβ (Homo sapiens, UniProt Q92731); experiment: Estrogen receptor fluorescence polarisation competitive binding assay, ERβ; settings: competitive binding, fluorescence polarisation; read-out: ERβ IC50
# T1 construct: purchased Invitrogen
# NCI-H226 = experiment: NCI60 in vitro screen, Non-Small Cell Lung Cancer; type: cell-based, human
# [1] = system: MCF-7 human breast cancer cell line; experiment: Alamar Blue assay for antiproliferative effects; type: cell-based; settings: Homo sapiens, MCF7, 72 h, MCF-7, 72 h, Alamar Blue; read-out: IC50 (μM), antiproliferative effects
# TK-10 = experiment: NCI60 in vitro screen, Renal cancer; type: cell-based, human
# SK-MEL-2 = experiment: NCI60 in vitro screen, Melanoma; type: cell-based, human
# physchem = settings: buffer
# MDA-MB-468 = experiment: NCI60 in vitro screen, Breast cancer; type: cell-based, human
# T-47D = experiment: NCI60 in vitro screen, Breast cancer; type: cell-based, human
# HOP-62 = experiment: NCI60 in vitro screen, Non-Small Cell Lung Cancer; type: cell-based, human
# SNB-19 = experiment: NCI60 in vitro screen, CNS Cancer; type: cell-based, human
# KM12 = experiment: NCI60 in vitro screen, Colon Cancer; type: cell-based, human
# HS 578T = experiment: NCI60 in vitro screen, Breast cancer; type: cell-based, human
# SK-MEL-28 = experiment: NCI60 in vitro screen, Melanoma; type: cell-based, human
# MCF-7 = settings: MCF-7, 10 μM
# HT29 = experiment: NCI60 in vitro screen, Colon Cancer; type: cell-based, human
# HCT-15 = experiment: NCI60 in vitro screen, Colon Cancer; type: cell-based, human
# A549/ATCC = experiment: NCI60 in vitro screen, Non-Small Cell Lung Cancer; type: cell-based, human
# SR = experiment: NCI60 in vitro screen, Leukemia; type: cell-based, human
# PC-3 = experiment: NCI60 in vitro screen, Prostate cancer; type: cell-based, human
# RXF 393 = experiment: NCI60 in vitro screen, Renal cancer; type: cell-based, human
# UO-31 = experiment: NCI60 in vitro screen, Renal cancer; type: cell-based, human
# MALME-3M = experiment: NCI60 in vitro screen, Melanoma; type: cell-based, human
# T1 sequence (Q92731 whole entry): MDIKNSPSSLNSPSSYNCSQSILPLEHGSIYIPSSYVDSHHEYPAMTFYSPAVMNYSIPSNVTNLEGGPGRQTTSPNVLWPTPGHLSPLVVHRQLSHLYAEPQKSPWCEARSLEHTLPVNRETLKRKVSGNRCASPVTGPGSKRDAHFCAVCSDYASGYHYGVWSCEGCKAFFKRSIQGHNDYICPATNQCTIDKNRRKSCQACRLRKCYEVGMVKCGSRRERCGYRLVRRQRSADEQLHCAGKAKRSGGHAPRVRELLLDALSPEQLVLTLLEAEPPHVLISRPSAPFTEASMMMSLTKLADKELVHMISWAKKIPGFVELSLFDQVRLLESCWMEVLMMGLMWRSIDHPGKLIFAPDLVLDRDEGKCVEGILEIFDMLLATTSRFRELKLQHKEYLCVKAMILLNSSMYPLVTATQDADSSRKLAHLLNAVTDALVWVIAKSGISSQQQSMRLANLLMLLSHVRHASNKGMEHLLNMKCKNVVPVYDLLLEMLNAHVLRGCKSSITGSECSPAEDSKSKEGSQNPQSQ
smiles,measurement,setting,value
"CC/C(=C(\c1ccccc1)c1ccc(OCCN(C)C(=O)CCC(=O)Oc2cc(/C=C\c3cc(OC)c(OC)c(OC)c3)ccc2OC)cc1)c1ccccc1 (mixture of isomers) [Compound 16a, N-{2-[4-((Z)-1,2-Diphenylbut-1-enyl)phenoxy]ethyl}-N-methylsuccinamic acid 2-methoxy-5-[(Z)-2-(3,4,5-trimethoxyphenyl)vinyl]phenyl ester]",Growth % (10^−5 M),"HCT-2998; HCT-2998, 10 μM",4.72%
same,inhibition at 10 µM,"HCT-2998; Homo sapiens, HCC-2998, one-dose, 10 μM, read-out: growth inhibition",95%
same,GI50,"HCT-2998; Homo sapiens, HCT-2998",31.7 nM
same,Growth % (10^−5 M),HL-60(TB); 10 μM,28.19%
same,GI50,HL-60(TB); Homo sapiens,14.5 nM
same,GI50,"NCI-H23; Homo sapiens, NCI-H23",45.9 nM
same,Growth % (10^−5 M),"NCI-H23; NCI-H23, 10 μM",12.25%
same,Growth % (10^−5 M),"786-0; 786-0, 10 μM",11.54%
same,GI50,"786-0; Homo sapiens, 786-0",185 nM
same,GI50,"LOX IMV1; Homo sapiens, LOX IMV1",35.8 nM
same,Growth % (10^−5 M),"LOX IMV1; LOX IMV1, 10 μM",28.97%
same,GI50,"M14; Homo sapiens, M14",12.9 nM
same,inhibition at 10 µM,"M14; Homo sapiens, M14, one-dose, 10 μM, read-out: growth inhibition",99%
same,Growth % (10^−5 M),"M14; M14, 10 μM",1.39%
same,Growth % (10^−5 M),ACHN; 10 μM,22.73%
same,GI50,ACHN; Homo sapiens,45.5 nM
same,GI50,"SF295; Homo sapiens, SF-295, SF295",20.8 nM
same,inhibition at 10 µM,"SF295; Homo sapiens, SF-295, one-dose, 10 μM, read-out: growth inhibition",94%
same,Growth % (10^−5 M),"SF295; SF295, 10 μM",6.21%
same,IC50,human ERβ,22.7 nM
same,GI50,"NCI-H226; Homo sapiens, NCI-H226",47.1 nM
same,Growth % (10^−5 M),"NCI-H226; NCI-H226, 10 μM",11.59%
same,IC50,[1],0.09 µM
same,GI50,"TK-10; Homo sapiens, TK-10",589 nM
same,Growth % (10^−5 M),"TK-10; TK-10, 10 μM",33.77%
same,GI50,"SK-MEL-2; Homo sapiens, SK-MEL-2",> 10 µM
same,Growth % (10^−5 M),"SK-MEL-2; SK-MEL-2, 10 μM",37.97%
same,half-life at 14.6 µg/mL,physchem,> 1200 min
same,GI50,"MDA-MB-468; Homo sapiens, MDA-MB-468",34.3 nM
same,inhibition at 10 µM,"MDA-MB-468; Homo sapiens, MDA-MB-468, one-dose, 10 μM, read-out: growth inhibition",99%
same,Growth % (10^−5 M),"MDA-MB-468; MDA-MB-468, 10 μM",0.68%
same,Growth % (10^−5 M),T-47D; 10 μM,59.73%
same,GI50,"T-47D; Homo sapiens, T47D",> 10 µM
same,Growth % (10^−5 M),"HOP-62; HOP-62, 10 μM",35.29%
same,GI50,"HOP-62; Homo sapiens, HOP-62",49.2 nM
same,GI50,"SNB-19; Homo sapiens, SNB-19",36.5 nM
same,Growth % (10^−5 M),"SNB-19; SNB-19, 10 μM",28.03%
same,GI50,"KM12; Homo sapiens, KM12",< 10 nM
same,Growth % (10^−5 M),"KM12; KM12, 10 μM",−37 ^e %
same,Growth % (10^−5 M),HS 578T; 10 μM,17.57%
same,GI50,HS 578T; Homo sapiens,25.5 nM
same,GI50,"SK-MEL-28; Homo sapiens, SK-MEL-28",< 10 nM
same,Growth % (10^−5 M),"SK-MEL-28; SK-MEL-28, 10 μM",89.31%
same,Growth % (10^−5 M),MCF-7,10.06%
same,Growth % (10^−5 M),"HT29; HT29, 10 μM",6.79%
same,GI50,"HT29; Homo sapiens, HT-29, HT29",489 nM
same,inhibition at 10 µM,"HT29; Homo sapiens, HT-29, HT29, one-dose, 10 μM, read-out: growth inhibition",93%
same,Growth % (10^−5 M),"HCT-15; HCT-15, 10 μM",0.71%
same,GI50,"HCT-15; Homo sapiens, HCT-15",24.5 nM
same,inhibition at 10 µM,"HCT-15; Homo sapiens, HCT-15, one-dose, 10 μM, read-out: growth inhibition",99%
same,Growth % (10^−5 M),A549/ATCC; 10 μM,18.56%
same,GI50,A549/ATCC; Homo sapiens,59 nM
same,Growth % (10^−5 M),SR; 10 μM,29.68%
same,GI50,SR; Homo sapiens,18.9 nM
same,GI50,"PC-3; Homo sapiens, PC-3",12 nM
same,Growth % (10^−5 M),"PC-3; PC-3, 10 μM",19.1%
same,GI50,"RXF 393; Homo sapiens, RXF 393",39.8 nM
same,Growth % (10^−5 M),"RXF 393; RXF 393, 10 μM",12.08%
same,GI50,"UO-31; Homo sapiens, UO-31",88.4 nM
same,Growth % (10^−5 M),"UO-31; UO-31, 10 μM",31.52%
same,GI50,"MALME-3M; Homo sapiens, Malme-3M",> 10 µM
same,Growth % (10^−5 M),"MALME-3M; MALME-3M, 10 μM",74.86%
